Measurements published in ChEMBL document CHEMBL3885881, “DrugMatrix”.

Organism: Rattus norvegicus
Test: DrugMatrix - Regimen: Daily Repeat
Type: toxicity, organism-based, Sprague-Dawley
Parameters: regimen Daily Repeat, gender Male, age 6-8 weeks
Conditions: in vivo, iv, vehicle 100 % SALINE; for ABSOLUTE BASOPHIL / ABSOLUTE EOSINOPHIL / ABSOLUTE LYMPHOCYTE / ABSOLUTE MONOCYTE / ABSOLUTE SEGMENTED NEUTROPHIL / BASOPHIL / EOSINOPHIL / ERYTHROCYTE COUNT / HEMATOCRIT / HEMOGLOBIN / LEUKOCYTE COUNT / LYMPHOCYTE / MEAN CORPUSCULAR HEMOGLOBIN / MEAN CORPUSCULAR HEMOGLOBIN CONCENTRATION / MEAN CORPUSCULAR VOLUME / MONOCYTE / NEUTROPHIL / NUCLEATED RED BLOOD CELLS / PLATELET COUNT: tissue Blood; for ALANINE AMINOTRANSFERASE / ALBUMIN / ALKALINE PHOSPHATASE / ASPARTATE AMINOTRANSFERASE / BLOOD UREA NITROGEN / CARBON DIOXIDE / CHOLESTEROL / CREATINE PHOSPHOKINASE / CREATININE / GLUCOSE / LACTATE DEHYDROGENASE / LIPASE / PHOSPHORUS / POTASSIUM / SODIUM / TOTAL BILIRUBIN / TOTAL PROTEIN / URIC ACID: tissue Plasma
[1] = 0 mg/kg, 72 h, dose level Control, time 3 day
[2] = 0 mg/kg, 120 h, dose level Control, time 5 day
[3] = 18 mg/kg, 72 h, dose level High, time 3 day

Q: Which results are given for `N=C(N)c1ccc(OCCCCCOc2ccc(C(=N)N)cc2)cc1` [PENTAMIDINE]?
A: ABSOLUTE BASOPHIL [1]: 0 CELLS/uL; ABSOLUTE EOSINOPHIL [1]: 193.5 CELLS/uL; ABSOLUTE LYMPHOCYTE [1]: 15717.5 CELLS/uL; ABSOLUTE MONOCYTE [1]: 389.33 CELLS/uL; ABSOLUTE SEGMENTED NEUTROPHIL [1]: 1883 CELLS/uL; BASOPHIL [1]: 0%; EOSINOPHIL [1]: 1.17%; ERYTHROCYTE COUNT [1]: 5.68 x10E6/uL; HEMATOCRIT [1]: 35.83%; HEMOGLOBIN [1]: 13.48 G/DL; LEUKOCYTE COUNT [1]: 18.18 x10E3/uL; LYMPHOCYTE [1]: 86.67%; MEAN CORPUSCULAR HEMOGLOBIN [1]: 23.8 pg; MEAN CORPUSCULAR HEMOGLOBIN CONCENTRATION [1]: 37.68 G/DL; MEAN CORPUSCULAR VOLUME [1]: 63.27 fL; MONOCYTE [1]: 2.17%; NEUTROPHIL [1]: 10%; NUCLEATED RED BLOOD CELLS [1]: 0 /100WBC; PLATELET COUNT [1]: 1186.33 x10E3/uL; ALANINE AMINOTRANSFERASE [1]: 68.5 u/L; ALBUMIN [1]: 4.37 G/DL; ALKALINE PHOSPHATASE [1]: 396.33 u/L; ASPARTATE AMINOTRANSFERASE [1]: 92.5 u/L; BLOOD UREA NITROGEN [1]: 18 mg/dL; CARBON DIOXIDE [1]: 24.33 mmol/L; CHOLESTEROL [1]: 67.17 mg/dL; CREATINE PHOSPHOKINASE [1]: 378.67 u/L; CREATININE [1]: 0.19 mg/dL; GLUCOSE [1]: 178.33 mg/dL; LACTATE DEHYDROGENASE [1]: 245.17 u/L; LIPASE [1]: 9.2 u/L; PHOSPHORUS [1]: 12.37 mg/dL; POTASSIUM [1]: 6.48 MEQ/L; SODIUM [1]: 143.28 MEQ/L; TOTAL BILIRUBIN [1]: 0.23 mg/dL; TOTAL PROTEIN [1]: 5.65 G/DL; URIC ACID [1]: 1.6 mg/dL; ABSOLUTE BASOPHIL [2]: 0 CELLS/uL; ABSOLUTE EOSINOPHIL [2]: 27.5 CELLS/uL; ABSOLUTE LYMPHOCYTE [2]: 13593.17 CELLS/uL; ABSOLUTE MONOCYTE [2]: 576 CELLS/uL; ABSOLUTE SEGMENTED NEUTROPHIL [2]: 1836.67 CELLS/uL; BASOPHIL [2]: 0%; EOSINOPHIL [2]: 0.17%; ERYTHROCYTE COUNT [2]: 5.99 x10E6/uL; HEMATOCRIT [2]: 37.42%; HEMOGLOBIN [2]: 13.78 G/DL; LEUKOCYTE COUNT [2]: 16.03 x10E3/uL; LYMPHOCYTE [2]: 85.17%; MEAN CORPUSCULAR HEMOGLOBIN [2]: 23.08 pg; MEAN CORPUSCULAR HEMOGLOBIN CONCENTRATION [2]: 36.83 G/DL; MEAN CORPUSCULAR VOLUME [2]: 62.6 fL; MONOCYTE [2]: 3.5%; NEUTROPHIL [2]: 11.17%; NUCLEATED RED BLOOD CELLS [2]: 0 /100WBC; PLATELET COUNT [2]: 1352.5 x10E3/uL; ALANINE AMINOTRANSFERASE [2]: 49.83 u/L; ALBUMIN [2]: 4.25 G/DL; ALKALINE PHOSPHATASE [2]: 331.33 u/L; ASPARTATE AMINOTRANSFERASE [2]: 86.17 u/L; BLOOD UREA NITROGEN [2]: 19.5 mg/dL; CARBON DIOXIDE [2]: 26.67 mmol/L; CHOLESTEROL [2]: 67.5 mg/dL; CREATINE PHOSPHOKINASE [2]: 346.17 u/L; CREATININE [2]: 0.22 mg/dL; GLUCOSE [2]: 170.67 mg/dL; LACTATE DEHYDROGENASE [2]: 405.5 u/L; LIPASE [2]: 8.83 u/L; PHOSPHORUS [2]: 11.3 mg/dL; POTASSIUM [2]: 6.06 MEQ/L; SODIUM [2]: 143.4 MEQ/L; TOTAL BILIRUBIN [2]: 0.17 mg/dL; TOTAL PROTEIN [2]: 6.22 G/DL; URIC ACID [2]: 1.63 mg/dL; ABSOLUTE BASOPHIL [3]: 0 CELLS/uL; ABSOLUTE EOSINOPHIL [3]: 160 CELLS/uL; ABSOLUTE LYMPHOCYTE [3]: 13847.33 CELLS/uL; ABSOLUTE MONOCYTE [3]: 361.33 CELLS/uL; BASOPHIL [3]: 0%; EOSINOPHIL [3]: 1%; ERYTHROCYTE COUNT [3]: 5.86 x10E6/uL; HEMATOCRIT [3]: 36.7%; HEMOGLOBIN [3]: 13.8 G/DL; LEUKOCYTE COUNT [3]: 15.4 x10E3/uL; LYMPHOCYTE [3]: 90%; MEAN CORPUSCULAR HEMOGLOBIN [3]: 23.57 pg; MEAN CORPUSCULAR HEMOGLOBIN CONCENTRATION [3]: 37.6 G/DL; MEAN CORPUSCULAR VOLUME [3]: 62.63 fL; MONOCYTE [3]: 2.33%; NEUTROPHIL [3]: 6.67%; NUCLEATED RED BLOOD CELLS [3]: 0 /100WBC; PLATELET COUNT [3]: 1444.67 x10E3/uL; ALANINE AMINOTRANSFERASE [3]: 52 u/L; ALBUMIN [3]: 4.13 G/DL; ALKALINE PHOSPHATASE [3]: 303.67 u/L; ASPARTATE AMINOTRANSFERASE [3]: 79 u/L; BLOOD UREA NITROGEN [3]: 19 mg/dL; CARBON DIOXIDE [3]: 26.67 mmol/L; CHOLESTEROL [3]: 75.33 mg/dL; CREATINE PHOSPHOKINASE [3]: 308.67 u/L; CREATININE [3]: 0.22 mg/dL; GLUCOSE [3]: 158.33 mg/dL; LACTATE DEHYDROGENASE [3]: 129.67 u/L; LIPASE [3]: 8.67 u/L; PHOSPHORUS [3]: 11.17 mg/dL; POTASSIUM [3]: 6.46 MEQ/L; SODIUM [3]: 142 MEQ/L; TOTAL BILIRUBIN [3]: 0.23 mg/dL; TOTAL PROTEIN [3]: 6.13 G/DL; URIC ACID [3]: 1.7 mg/dL
